The text below walks through data of patent US20090068299A1.

One assay concerns TNF-RE tkLuc. The assay is described as follows: Effect of antiestrogens on TNF-RE tkLuc. The class given is cell-based, human. The note with it: for effect on the repression induced by E2: TNF-RE tkLuc; for activation of TNF-RE tkLuc: antiestrogens, in contrast to E2.
Assay [1] deals with T1, ERβ (Homo sapiens, UniProt Q92731). The assay is described as follows: ERE-tk-Luc luciferase activation in U2OS cells with ERβ. The format is cell-based. Set-up: expressed in transfected cells; host or cells: U2OS (human osteosarcoma). The note with it: competition.
T1 sequence (Q92731 whole entry): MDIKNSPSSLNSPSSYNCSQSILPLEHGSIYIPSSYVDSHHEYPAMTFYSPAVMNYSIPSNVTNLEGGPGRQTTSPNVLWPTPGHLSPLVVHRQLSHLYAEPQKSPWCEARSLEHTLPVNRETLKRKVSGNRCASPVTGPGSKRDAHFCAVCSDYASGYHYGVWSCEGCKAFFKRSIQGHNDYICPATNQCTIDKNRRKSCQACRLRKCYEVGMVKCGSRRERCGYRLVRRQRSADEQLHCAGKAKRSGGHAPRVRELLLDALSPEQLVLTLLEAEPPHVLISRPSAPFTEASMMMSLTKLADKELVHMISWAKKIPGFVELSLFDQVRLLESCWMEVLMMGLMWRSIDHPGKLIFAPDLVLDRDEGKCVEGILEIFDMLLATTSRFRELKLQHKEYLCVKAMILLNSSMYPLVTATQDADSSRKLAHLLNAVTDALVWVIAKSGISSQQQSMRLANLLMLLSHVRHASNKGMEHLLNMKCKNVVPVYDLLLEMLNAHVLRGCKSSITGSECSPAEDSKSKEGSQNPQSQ
For assay [2], the target named is T1, ERβ. Conditions: in the presence of ERβ.
Assay [3] deals with T1, ERβ. The assay can be described thus: Repression of TNF-α activation of TNF-RE tkLuc in U2OS cells with ERβ. The format is cell-based. More on the design: expressed in transfected cells.
Assay [4] has as its system estrogen receptor-positive breast cancer. The note with it: five years of therapy; cited from earlier work.
In assay [5] the test system is primary invasive breast cancer. Conditions: women at high risk for breast cancer; cited from earlier work.

In the case of `O=C(c1ccc(OCCN2CCCCC2)cc1)c1c(-c2ccc(O)cc2)sc2cc(O)ccc12` [raloxifene], in the assay with TNF-RE tkLuc, the “effect on the repression induced by E2” value is given as “abolished the repression induced by E2” and the “activation of TNF-RE tkLuc” value came out at 2 fold. For the same compound, the “stimulatory effect of Pueraria lobata on the ERE with ERβ in the presence of the SERM antagonist (FIG. 6)” value on ERβ [1] is “inhibited”.

Turning to `C[C@]12CC[C@@H]3c4ccc(O)cc4CC[C@H]3[C@@H]1CC[C@@H]2O` [E2, estradiol], on ERβ [2], the “repression of TNF-α activation of TNF-RE tkLuc” value is recorded as 60-80%. Further, the “repression of TNF-α activation of TNF-RE” value on ERβ [3] is reported as 100%.

`CC/C(=C(\c1ccccc1)c1ccc(OCCN(C)C)cc1)c1ccccc1` [tamoxifen]: in the assay on TNF-RE tkLuc, the “effect on the repression induced by E2” value is “abolished the repression induced by E2” and the “activation of TNF-RE tkLuc” value was found to be 2 fold. In addition, in assay [4], the “reduction of mortality from breast cancer” value is listed as 22% and the “reduction of the risk of recurrences” value was 42%. The “reduction of the risk of primary invasive breast cancer” value in assay [5] is listed as 49%.

Take `C[C@]12CC[C@@H]3c4ccc(O)cc4C[C@@H](CCCCCCCCC[S+]([O-])CCCC(F)(F)C(F)(F)F)[C@H]3[C@@H]1CC[C@@H]2O` (stereo partly drawn) [ICI 182, 780]: in the assay with TNF-RE tkLuc, the “effect on the repression induced by E2” value is reported as “abolished the repression induced by E2” and the “activation of TNF-RE tkLuc” value is listed as 2 fold.
